From ChEMBL document CHEMBL1201862, “PubChem BioAssay data set” (2004)
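A five-concentration, 48-hour dose response in 96-well plates underlies each endpoint, interpolated linearly between surrounding concentrations. Here, GI50 denotes the concentration required for 50% inhibition of growth.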 Calls of active or inactive are those of the source. Rule as the data show it: active = GI50 up to about 1.1 µM and inactive = higher.

Tests used:
Experiment in all cases: inhibition of tumour cell growth, NCI panel, 48 h
SN12C = system: SN12C
K562 = system: K562
HCT-15 = system: HCT-15
OVCAR-8 = system: OVCAR-8
NCI-H226 = system: NCI-H226
PC-3 = system: PC-3
COLO 205 = system: COLO 205
HT-29 = system: HT-29
OVCAR-5 = system: OVCAR-5
UACC-257 = system: UACC-257
NCI-H23 = system: NCI-H23
SK-MEL-2 = system: SK-MEL-2
Malme-3M = system: Malme-3M
Hs-578T = system: Hs-578T
CAKI-1 = system: CAKI-1
MDA-N = system: MDA-N
SK-MEL-5 = system: SK-MEL-5
UACC-62 = system: UACC-62
BT-549 = system: BT-549
HOP-62 = system: HOP-62

Compound | GI50 (SN12C) | GI50 (K562) | GI50 (HCT-15) [µM] | GI50 (OVCAR-8) | GI50 (NCI-H226) | GI50 (PC-3) | GI50 (COLO 205) | GI50 (HT-29) | GI50 (OVCAR-5) | GI50 (UACC-257) | GI50 (NCI-H23) | GI50 (SK-MEL-2) | GI50 (Malme-3M) | GI50 (Hs-578T) | GI50 (CAKI-1) | GI50 (MDA-N) | GI50 (SK-MEL-5) | GI50 (UACC-62) | GI50 (BT-549) | GI50 (HOP-62)
CCC/N=C/c1cc(Cc2ccc(O)c(/C=N/CCC)c2)ccc1O | 3.82 µM (inactive) | 1.69 µM (inactive) | 3.33 | 3.1 µM (inactive) | 8.43 µM (inactive) | 1.82 µM (inactive) | 16.1 µM (inactive) | 12.5 µM (inactive) | 18.4 µM (inactive) | 19.1 µM (inactive) | 6.46 µM (inactive) | 3 µM (inactive) | 19.5 µM (inactive) | 16 µM (inactive) | 21.1 µM (inactive) | 2.78 µM (inactive) | 5.51 µM (inactive) | 5.53 µM (inactive) | 10.7 µM (inactive) | 14.1 µM (inactive)
COc1ccc(/C(Nc2ccccc2)=C(\CCl)c2ccccc2)cc1OC | 36.7 µM (inactive) | 15.7 µM (inactive) | 40.7 | 35.2 µM (inactive) | 30.9 µM (inactive) | 39.4 µM (inactive) | 71.6 µM (inactive) | 34.9 µM (inactive) | > 100 µM (inactive) | 29.2 µM (inactive) | 45.9 µM (inactive) | 24.1 µM (inactive) | 37.2 µM (inactive) | > 100 µM (inactive) | > 100 µM (inactive) | 35.7 µM (inactive) | 22.2 µM (inactive) | 99.1 µM (inactive) | 33.2 µM (inactive) | > 100 µM (inactive)
COc1ccc(-n2c(Cn3nnc(-c4cccnc4)n3)nn(C3OC(COC(=O)c4ccccc4)C(OC(=O)c4ccccc4)C3OC(=O)c3ccccc3)c2=S)cc1 (stereo not given) | > 100 µM (inactive) | > 100 µM (inactive) | > 100 | > 100 µM (inactive) | 14.2 µM (inactive) | > 100 µM (inactive) | > 100 µM (inactive) | 50.9 µM (inactive) | > 100 µM (inactive) | > 100 µM (inactive) | > 100 µM (inactive) | > 100 µM (inactive) | > 100 µM (inactive) | > 100 µM (inactive) | > 100 µM (inactive) | > 100 µM (inactive) | > 100 µM (inactive) | > 100 µM (inactive) | > 100 µM (inactive) | > 100 µM (inactive)
COC(=O)/C=C(/C(=O)OC)c1c(C)c(C)c2c(C)cc(C)cc(C)c1-2 | 38.8 µM (inactive) | > 100 µM (inactive) | 8.85 | 46.3 µM (inactive) | 13.3 µM (inactive) | 28.8 µM (inactive) | 29.4 µM (inactive) | 11.6 µM (inactive) | 19.1 µM (inactive) | 22 µM (inactive) | 23.8 µM (inactive) | 26.2 µM (inactive) | 28.4 µM (inactive) | 8.99 µM (inactive) | 27.4 µM (inactive) | 2.24 µM (inactive) | 12.6 µM (inactive) | 8.39 µM (inactive) | 22.4 µM (inactive) | 23 µM (inactive)
CNC1=C/C(=N/C2=CC(=N/C(=C\C#N)C(C)(C)O)/OC2(C)C)OC1(C)C | 14.5 µM (inactive) | 3.12 µM (inactive) | 5.31 | 9.84 µM (inactive) | 20.8 µM (inactive) | 13.2 µM (inactive) | 6.56 µM (inactive) | 11.4 µM (inactive) | 60.4 µM (inactive) | 43.3 µM (inactive) | 33.3 µM (inactive) | 44.4 µM (inactive) | 25.2 µM (inactive) | 35.1 µM (inactive) | 7.82 µM (inactive) | 21.3 µM (inactive) | 14.9 µM (inactive) | 7.91 µM (inactive) | 29.6 µM (inactive) | 7.96 µM (inactive)
